The target of experiment [1] is T1, LINE1 reverse transcriptase (recombinant MBP-tagged LINE1 protein (238-1061)) (Homo sapiens, UniProt O00370).
T1 construct: recombinant MBP-tagged LINE1 protein (238-1061); made in house
Nature of the experiment: Homogeneous time-resolved fluorescence (HTRF) LINE1 RT assay. The conditions noted are these: triphosphate analogs, LINE1 enzyme 64 ng/well, 25° C. 60 minutes. Type of experiment: biochemical. The method, then: Exemplary triphosphate analogs were tested for the ability to inhibit LINE1 reverse transcriptase using a homogeneous time-resolved fluorescence (HTRF) assay. Assay procedures and results are described below.
The LINE1 reverse transcriptase homogeneous time-resolved fluorescence (HTRF) assay was performed with recombinant MBP-tagged LINE1 protein (238-1061) (generated and purified according to procedures in Dai L. et al. BMC Biochemistry 2011; 12:18) in a 384-well format. Test compound was serially diluted in DMSO and further diluted in the assay buffer (50 mM Tris-HCl, 50 mM KCl, 10 mM MgCl2, 10 mM DTT, pH 8.1) to achieve a final DMSO concentration of 1%. The serially diluted compound was mixed with 64 ng/well of LINE1 enzyme, 5 nM of pre-annealed template/biotin-primer pair (synthesized at Generay Biotechnology), 10 nM of Fluorescein-12-dCTP fluorescent probe (PerkinElmer), and 1 μM dGTP/dATP/dTTP (ThermoFisher Scientific) in the assay buffer. The template/biotin-primer sequences were as follows:
After incubating at 25° C. for 60 minutes, the detection reagent (20 mM EDTA with streptavidin-terbium cryptate, Cisbio Bioassay) in the PPI buffer (Cisbio Bioassay) was added, and the mixture was incubated at 25° C. for 30 minutes. At the end of the incubation, fluorescence was read at ex/em=337/485 nm and ex/em=337/520 nm on an Envision 2104 plate reader (PerkinElmer). The fluorescence ratio at 520/485 nm was used for the calculation. […] The IC50 was calculated by fitting the compound dose inhibition curve with a 4-parameter non-linear regression equation.
(In general: Time-resolved FRET reads energy transfer from a long-lived donor to a nearby acceptor.)

In a further experiment the target is T2, human telomerase (Homo sapiens, UniProt O14746).
T2 construct: endogenous in cells; host or cells: MCF-7 cell lysate
T2 sequence (O14746 whole entry): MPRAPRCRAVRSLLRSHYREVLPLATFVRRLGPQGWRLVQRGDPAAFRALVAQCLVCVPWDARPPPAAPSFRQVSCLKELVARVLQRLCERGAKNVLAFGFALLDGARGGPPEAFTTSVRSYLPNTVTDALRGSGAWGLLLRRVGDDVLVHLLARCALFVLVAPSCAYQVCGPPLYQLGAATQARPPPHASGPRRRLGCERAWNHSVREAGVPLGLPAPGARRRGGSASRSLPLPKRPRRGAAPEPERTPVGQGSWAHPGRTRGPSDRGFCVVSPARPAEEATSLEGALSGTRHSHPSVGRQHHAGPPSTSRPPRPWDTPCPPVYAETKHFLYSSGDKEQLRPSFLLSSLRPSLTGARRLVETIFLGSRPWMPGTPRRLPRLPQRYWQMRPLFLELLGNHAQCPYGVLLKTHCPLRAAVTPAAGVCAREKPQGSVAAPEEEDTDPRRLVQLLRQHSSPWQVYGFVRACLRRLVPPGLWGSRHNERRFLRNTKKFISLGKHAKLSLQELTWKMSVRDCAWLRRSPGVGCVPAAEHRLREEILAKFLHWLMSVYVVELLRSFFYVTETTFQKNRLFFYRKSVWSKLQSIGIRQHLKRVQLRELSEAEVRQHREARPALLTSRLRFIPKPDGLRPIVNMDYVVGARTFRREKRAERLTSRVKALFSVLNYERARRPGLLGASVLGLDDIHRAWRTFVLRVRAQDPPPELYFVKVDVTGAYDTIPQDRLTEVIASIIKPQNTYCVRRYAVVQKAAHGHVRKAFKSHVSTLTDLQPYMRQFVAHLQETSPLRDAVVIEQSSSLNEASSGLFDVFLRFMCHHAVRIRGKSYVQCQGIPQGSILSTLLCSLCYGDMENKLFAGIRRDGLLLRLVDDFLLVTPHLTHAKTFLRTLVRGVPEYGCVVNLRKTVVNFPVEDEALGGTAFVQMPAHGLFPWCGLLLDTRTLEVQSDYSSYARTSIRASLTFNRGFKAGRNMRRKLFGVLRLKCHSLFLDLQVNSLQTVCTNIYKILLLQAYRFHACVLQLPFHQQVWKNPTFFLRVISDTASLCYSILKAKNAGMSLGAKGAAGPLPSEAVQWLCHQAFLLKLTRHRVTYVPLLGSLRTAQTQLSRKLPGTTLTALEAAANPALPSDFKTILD
T2 sequence (O60832 whole entry partner): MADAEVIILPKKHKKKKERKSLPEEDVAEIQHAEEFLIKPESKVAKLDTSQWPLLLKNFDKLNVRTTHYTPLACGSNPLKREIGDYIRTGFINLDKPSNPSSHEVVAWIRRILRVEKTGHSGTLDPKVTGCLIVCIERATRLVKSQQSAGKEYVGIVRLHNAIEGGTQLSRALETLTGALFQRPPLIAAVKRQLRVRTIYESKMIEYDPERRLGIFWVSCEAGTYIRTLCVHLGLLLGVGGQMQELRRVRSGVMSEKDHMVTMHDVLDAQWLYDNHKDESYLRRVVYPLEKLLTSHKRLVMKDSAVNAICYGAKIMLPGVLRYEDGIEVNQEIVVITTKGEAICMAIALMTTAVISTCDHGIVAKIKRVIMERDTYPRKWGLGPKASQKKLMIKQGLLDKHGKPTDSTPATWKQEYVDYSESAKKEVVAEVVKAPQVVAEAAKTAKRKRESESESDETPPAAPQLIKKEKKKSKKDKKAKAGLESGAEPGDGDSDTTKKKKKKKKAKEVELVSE
T2 sequence (Q9NX24 whole entry partner): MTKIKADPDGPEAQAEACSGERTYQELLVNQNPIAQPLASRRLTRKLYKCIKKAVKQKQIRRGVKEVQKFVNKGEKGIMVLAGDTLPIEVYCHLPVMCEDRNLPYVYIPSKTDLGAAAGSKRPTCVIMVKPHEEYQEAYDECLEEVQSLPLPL
T2 sequence (Q9NPE3 whole entry partner): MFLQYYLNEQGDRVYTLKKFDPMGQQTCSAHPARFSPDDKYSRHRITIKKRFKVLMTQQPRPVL
T2 sequence (Q9NY12 whole entry partner): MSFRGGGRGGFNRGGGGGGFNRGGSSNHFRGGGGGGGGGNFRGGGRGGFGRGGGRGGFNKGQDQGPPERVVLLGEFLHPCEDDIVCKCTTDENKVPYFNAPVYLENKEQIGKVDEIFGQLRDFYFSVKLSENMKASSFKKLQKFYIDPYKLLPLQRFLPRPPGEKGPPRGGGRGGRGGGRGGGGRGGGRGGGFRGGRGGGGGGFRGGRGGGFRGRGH
Nature of the experiment: Human telomerase PCR ELISA assay (MCF-7 cell lysate). It is filed as biochemical. The following applies: triphosphates, 0.2 μg MCF-7 lysate. The method, then:
Exemplary compounds were tested for ability to inhibit human telomerase using a PCR ELISA assay. Off-target inhibition of human telomerase can result in undesired cellular toxicity, e.g., triggering replicative senescence and/or apoptotic cell death. Assay procedures and results are described below.
The human telomerase assay was performed with telomerase in the MCF-7 cell lysate using the Telo TAGGG Telomerase PCR ELISA^Plus kit (Roche) per manufacturer's instruction. MCF-7 cells were lysed in the lysis buffer and the supernatant was used for the assay. Test compound was serially diluted in water and mixed with 0.2 μg of MCF-7 lysate in PCR tubes and incubate at room temperature for 15 minutes. The PCR reaction mixture was then added, the tubes were transferred to a thermal cycler (Analytikjena) and the telomerase elongation reaction was performed for 30 minutes followed by 30 PCR cycles with the following protocol:
Mix 2.5 μL of PCR amplification product from above to 10 μl of denature reagent to each well of a PCR plate and incubate at room temperature for 10 minutes. Add in 100 μl of hybridization buffer T and mix well. Transfer 100 μl per well of the reaction mixture to the precoated MP module, incubate at 37° C. for 2 hours. Remove the hybridization solution, wash three times with the wash buffer, add anti-DIG-HRP solution, incubate at room temperature for 30 minutes. Remove the anti-DIG-HRP solution and wash five times with the wash buffer. Add TMB substrate and incubate at room temperature for 10 minutes. Measure the absorbance at 450 nm using Envision (PerkinElmer).

The test system of experiment [2] is THP1-Dual KO-TREX1 xenograft tumors. Nature of the experiment: Altering IFN production in THP1 TREX1 KO xenografts (compounds 2, 25, 40). It is filed as in vivo, mouse. The conditions noted are these: CB-17 SCID mice, decitabine 5 mg/kg IP, test compound 10, 30 or 100 mg/kg PO once daily 4 days, tumors 24 h post-last dose. How it is done: Exemplary compounds 2, 25 and 40 were tested for their ability to alter IFN levels in THP1-Dual™ KO-TREX1 xenografts in mice. Assay procedures are described below.
CB-17 SCID female mice were inoculated subcutaneously with 10 million THP1-Dual™ KO-TREX1 cells in 200 μl PBS with Matrigel (1:1) and grouped when tumor volume reached 350-400 mm^3. Mice bearing THP1-Dual™ KO-TREX1 xenograft tumors were then separated into 5 groups. Three groups were administered: (1) decitabine (DAC) at 5 mg/kg IP, once daily, for 4 days, and (2) test compound at 10, 30, or 100 mg/kg, PO, once daily, for 4 days. One group was administered decitabine (DAC) at 5 mg/kg IP, once daily, for 4 days, and the test compound vehicle control. The final group was administered the vehicle control from both the test compound and the vehicle control from decitabine. Decitabine is formulated in sterile PBS, pH 7.4, and Compound 2, 25, and 40 were formulated in 20% PEG400 in PBS.
Tumors were harvested 24 h post-last dose administered on day 4, ground in PBS at 50 Hz for 5 min, and kept on ice for 30 min while being vortexed every 5 min. […] Equal amounts of proteins were added to 96-well black plates, and luciferase signal was measured using the QUANTI-Luc™ detection medium according to manufacturer's instructions. Luminescence was measured using the EnVision® 2105 Multimode Plate Reader. […]

As a reminder, the IC50 is the point on the concentration scale where inhibition reaches its midpoint.

Molecules are shown by their SMILES. Counter-ions that a name gives are not always drawn.

For the compound `Nc1nc(=O)n([C@@H]2O[C@](CCl)(COP(=O)(O)OP(=O)(O)OP(=O)(O)O)[C@@H](O)[C@@H]2F)cc1F` [Compound 67-TP], the results for the 50% inhibitory concentration (IC50) (in experiment [1]; against human telomerase) were 0.43 µM and greater than 100 µM, respectively.

With `C#C[C@]1(COP(=O)(O)OP(=O)(O)OP(=O)(O)O)O[C@@H](n2ccc(N)nc2=O)[C@@H](F)[C@@H]1O` [Compound 35-TP], the concentration for half-maximal inhibition (IC50) is 0.0137 µM in experiment [1] and greater than 100 µM against human telomerase. The corresponding values for `CC[C@]1(COP(=O)(O)OP(=O)(O)OP(=O)(O)O)O[C@@H](n2ccc(N)nc2=O)C[C@@H]1O` [44-TP] are 0.108 µM and 25 to 50 µM. Consider `C=C[C@]1(COP(=O)(O)OP(=O)(O)OP(=O)(O)O)O[C@@H](n2ccc(N)nc2=O)C[C@@H]1O` [Compound 43-TP], for which the IC50 in experiment [1] is 0.081 µM; at human telomerase it was 1 to 25 µM.

Regarding `Nc1ccn([C@H]2C[C@H](O)[C@](CO)(CCl)O2)c(=O)n1` [Compound 2, 4-amino-1-((2R,4S,5R)-5-(chloromethyl)-4-hydroxy-5-(hydroxymethyl)tetrahydrofuran-2-yl)pyrimidin-2(1H)-one], the “inhibition of DAC-induced IFN signal in THP1 tumors” value in experiment [2] is given as “potent inhibition of DAC-induced IFN signal”. In the case of `Nc1ccn([C@@H]2O[C@](CCl)(COP(=O)(O)OP(=O)(O)OP(=O)(O)O)[C@@H](O)[C@@H]2F)c(=O)n1` [Compound 40-TP], the values for the IC50 (in experiment [1]; at human telomerase) were 0.831 µM and greater than 100 µM, respectively. With `Nc1nc(=O)n([C@H]2C[C@H](O)[C@@](CCl)(COP(=O)(O)OP(=O)(O)OP(=O)(O)O)O2)cc1F` [Compound 14-TP, ((2R,3S,5R)-5-(4-amino-5-fluoro-2-oxopyrimidin-1(2H)-yl)-2-(chloromethyl)-3-hydroxytetrahydrofuran-2-yl)methyl tetrahydrogen triphosphate TEA Salt], the IC50 in experiment [1] is 0.272 µM; on human telomerase it was no more than 1 µM. In the same order, the values of `Nc1ccn([C@H]2C[C@H](O)[C@@](CCl)(COP(=O)(O)OP(=O)(O)OP(=O)(O)O)O2)c(=O)n1` [Compound 2-TP] are 0.0475 µM and no more than 1 µM.

These data come from patent US20230295212A1 (ROME Therapeutics, Inc., priority 2022, published 2023).
